Source: patent US11000033B2, “Ketone or oxime compound, and herbicide” (NISSAN CHEMICAL CORPORATION, priority 2014, dated 2021)

How the values were obtained:
Type in all cases: in vivo
[1] = test system: Echinochloa oryzacola Vasing.; experiment: Test Example 2: herbicidal activity, application during weed generation in submerged conditions (symbol A); settings: Table 23; application herbicide amount 320 g/ha; grade 0-5 by criteria of Test Example 1
Method in brief: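 Visual herbicidal ratings, taken three weeks after dosing, reflect post-emergence water-surface application to seedlings at one to two leaves. Conditions: co-sown weeds in alluvial soil flooded to 4 cm, greenhouse held at 25° C. to 30° C.; compound given as water-diluted emulsion at a fixed herbicide amount.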

Leptochloa chinensis = experiment: Test Example 3: herbicidal effect by foliage application, Wagner pot (symbol D); settings: application herbicide amount 320 g/ha
Method in brief: (§1)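 Herbicidal activity was rated three weeks after a foliar spray of diluted emulsion concentrate, applied at a predetermined dose to plants grown for 14 days from seed in waterlogged alluvial soil within a 25–30 °C greenhouse.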

Cyperus difformis = experiment: Test Example 3: herbicidal effect by foliage application, Wagner pot (symbol E); settings: application herbicide amount 320 g/ha
Method in brief: as §1

[2] = test system: directly sowed rice plant; experiment: Test Example 3: effect on crop by foliage application, Wagner pot (symbol b); settings: application herbicide amount 320 g/ha
Method in brief: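 Greenhouse culture at 25–30 °C of seeded rice, Cyperus difformis, Leptochloa chinensis and Echinochloa crus-galli var. crus-galli, in alluvial soil held under 0.1–0.5 cm of water in a Wagner pot.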

Setaria viridis = experiment: Test Example 4: herbicidal effect by soil treatment (symbol G); settings: application herbicide amount 320 g/ha
Method in brief: (§2)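 Seeds were sown in sterilized diluvial soil, covered with about 1.5 cm of soil, and the soil surface was sprayed with a water-diluted emulsion of the compound at a predetermined rate. Plants grew in a greenhouse at 25° C. to 30° C.; effects were scored visually 3 weeks after application.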

Avena fatua [3] = experiment: Test Example 4: herbicidal effect by soil treatment (symbol I); settings: application herbicide amount 320 g/ha
Method in brief: as §2

Alopecurus myosuroides = experiment: Test Example 4: herbicidal effect by soil treatment (symbol J); settings: application herbicide amount 320 g/ha
Method in brief: as §2

Lolium multiflorum Lam. = experiment: Test Example 4: herbicidal effect by soil treatment (symbol K); settings: application herbicide amount 320 g/ha
Method in brief: as §2

Abutilon theophrasti = experiment: Test Example 4: herbicidal effect by soil treatment (symbol M); settings: application herbicide amount 320 g/ha
Method in brief: as §2

Amaranthus retroflexus = experiment: Test Example 4: herbicidal effect by soil treatment (symbol N); settings: application herbicide amount 320 g/ha
Method in brief: as §2

Galium spurium = experiment: Test Example 4: herbicidal effect by soil treatment (symbol Q); settings: application herbicide amount 320 g/ha
Method in brief: as §2

rice = experiment: Test Example 4: effect on crop by soil treatment (symbol b); settings: application herbicide amount 320 g/ha
Method in brief: (§3)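 Greenhouse culture at 25° C. to 30° C. followed sowing of seed in spots on sterilized diluvial soil with a soil cover close to 1.5 cm thick.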

wheat = experiment: Test Example 4: effect on crop by soil treatment (symbol e); settings: application herbicide amount 320 g/ha
Method in brief: as §3

Avena fatua [4] = experiment: Test Example 5: herbicidal effect by foliage application, plastic box (symbol I); settings: 320 g/ha, 3 weeks after application
Method in brief: (§4)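 After sowing into sterilized diluvial soil and growing two weeks under glass at 25° C. to 30° C., seedlings receive a uniform foliar spray of diluted emulsion. Damage is judged visually three weeks on.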

Stellaria media = experiment: Test Example 5: herbicidal effect by foliage application, plastic box (symbol P); settings: 320 g/ha, 3 weeks after application
Method in brief: as §4

corn = experiment: Test Example 5: effect on crop by foliage application, plastic box (symbol c); settings: 320 g/ha, 3 weeks after application
Method in brief: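 Soil: sterilized diluvial. Container: plastic box, 21 × 13 cm, 7 cm deep. Sowing: spot-like, ~1.5 cm cover. Growth: greenhouse, 25° C. to 30° C.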

Chenopodium album = experiment: Test Example 5: herbicidal effect by foliage application, plastic box (symbol O); settings: 320 g/ha, 3 weeks after application
Method in brief: as §4

| SMILES | Herbicidal effect grade, A: Echinochloa oryzacola Vasing. [1] | herbicidal effect on D (Leptochloa chinensis), grade 0-5 (Leptochloa chinensis) | herbicidal effect on E, grade 0-5 (Cyperus difformis) | effect on crop b (directly sowed rice plant), grade 0-5 [2] | I: Avena fatua, herbicidal effect (criteria of Test Example 1) (Avena fatua [4]) | P: Stellaria media, herbicidal effect (criteria of Test Example 1) (Stellaria media) | c: corn, effect on crop (criteria of Test Example 1) (corn) | Herbicidal effect grade, G: Setaria viridis (Setaria viridis) | Herbicidal effect grade, I: Avena fatua (Avena fatua [3]) | Herbicidal effect grade, J: Alopecurus myosuroides (Alopecurus myosuroides) | Herbicidal effect grade, K: Lolium multiflorum Lam. (Lolium multiflorum Lam.) | Herbicidal effect grade, M: Abutilon theophrasti (Abutilon theophrasti) | Herbicidal effect grade, N: Amaranthus retroflexus (Amaranthus retroflexus) | Herbicidal effect grade, Q: Galium spurium (Galium spurium) | Effect on crop grade, b: directly sowed rice plant (rice) | Effect on crop grade, e: wheat (wheat) | O: Chenopodium album, herbicidal effect (criteria of Test Example 1) (Chenopodium album) | also measured |
| --- | --- | --- | --- | --- | --- | --- | --- | --- | --- | --- | --- | --- | --- | --- | --- | --- | --- | --- |
| CON=C(C)CC1CC(OC(=O)N2CCOCC2)=C(c2c(C)cc(-c3ccc(Cl)cc3)cc2C)C1=O (mixture of isomers) [6-062] | 5 (Herbicidal ratio of 90% or more (almost completely withered)) | 5 (Herbicidal ratio of 90% or more (almost completely withered)) | 5 (Herbicidal ratio of 90% or more (almost completely withered)) | 5 (Herbicidal ratio of 90% or more (almost completely withered)) | 5 (Herbicidal ratio of 90% or more (almost completely withered)) | 3 (Herbicidal ratio of 40% or higher and lower than 70%) | 5 (Herbicidal ratio of 90% or more (almost completely withered)) |  |  |  |  |  |  |  |  |  |  | G: Setaria viridis, herbicidal effect grade (Setaria viridis): 5 (Herbicidal ratio of 90% or more (almost completely withered)); I: Avena fatua, herbicidal effect grade (Avena fatua [3]): 0 (Herbicidal ratio of 5% or lower (almost no effect)); J: Alopecurus myosuroides, herbicidal effect grade (Alopecurus myosuroides): 4 (Herbicidal ratio of 70% or higher and lower than 90%); K: Lolium multiflorum Lam., herbicidal effect grade (Lolium multiflorum Lam.): 0 (Herbicidal ratio of 5% or lower (almost no effect)); M: Abutilon theophrasti, herbicidal effect grade (Abutilon theophrasti): 0 (Herbicidal ratio of 5% or lower (almost no effect)); N: Amaranthus retroflexus, herbicidal effect grade (Amaranthus retroflexus): 0 (Herbicidal ratio of 5% or lower (almost no effect)); Q: Galium spurium, herbicidal effect grade (Galium spurium): 0 (Herbicidal ratio of 5% or lower (almost no effect)); b: directly sowed rice plant, effect on crop grade (rice): 0 (Herbicidal ratio of 5% or lower (almost no effect)); e: wheat, effect on crop grade (wheat): 0 (Herbicidal ratio of 5% or lower (almost no effect)) |
| CON=C(C)CC1CC(OC(=O)N2CCOCC2)=C(c2c(C)cc(-c3ccc(F)c(Cl)c3)cc2C)C1=O (stereo not shown) [6-093] | 5 (Herbicidal ratio of 90% or more (almost completely withered)) | 5 (Herbicidal ratio of 90% or more (almost completely withered)) | 4 (Herbicidal ratio of 70% or higher and lower than 90%) | 5 (Herbicidal ratio of 90% or more (almost completely withered)) | 5 (Herbicidal ratio of 90% or more (almost completely withered)) | 4 (Herbicidal ratio of 70% or higher and lower than 90%) | 5 (Herbicidal ratio of 90% or more (almost completely withered)) | 5 (Herbicidal ratio of 90% or more (almost completely withered)) | 0 (Herbicidal ratio of 5% or lower (almost no effect)) | 3 (Herbicidal ratio of 40% or higher and lower than 70%) | 1 (Herbicidal ratio of 5% or higher and lower than 20%) | 0 (Herbicidal ratio of 5% or lower (almost no effect)) | 0 (Herbicidal ratio of 5% or lower (almost no effect)) | 0 (Herbicidal ratio of 5% or lower (almost no effect)) | 1 (Herbicidal ratio of 5% or higher and lower than 20%) | 0 (Herbicidal ratio of 5% or lower (almost no effect)) | 5 (Herbicidal ratio of 90% or more (almost completely withered)) |  |
| CON=C(C)CC1CC(OC(=O)C2CC2)=C(c2c(C)cc(C)cc2C)C1=O (stereo not shown) [1-015] | 5 (Herbicidal ratio of 90% or more (almost completely withered)) | 5 (Herbicidal ratio of 90% or more (almost completely withered)) | 5 (Herbicidal ratio of 90% or more (almost completely withered)) | 5 (Herbicidal ratio of 90% or more (almost completely withered)) |  |  |  |  |  |  |  |  |  |  |  |  |  | G (Setaria viridis) herbicidal effect grade (Setaria viridis): 3 (Herbicidal ratio of 40% or higher and lower than 70%); I (Avena fatua) herbicidal effect grade (Avena fatua [3]): 5 (Herbicidal ratio of 90% or more (almost completely withered)); J (Alopecurus myosuroides) herbicidal effect grade (Alopecurus myosuroides): 5 (Herbicidal ratio of 90% or more (almost completely withered)); K (Lolium multiflorum Lam.) herbicidal effect grade (Lolium multiflorum Lam.): 5 (Herbicidal ratio of 90% or more (almost completely withered)); M (Abutilon theophrasti) herbicidal effect grade (Abutilon theophrasti): 5 (Herbicidal ratio of 90% or more (almost completely withered)); N (Amaranthus retroflexus) herbicidal effect grade (Amaranthus retroflexus): 5 (Herbicidal ratio of 90% or more (almost completely withered)); Q (Galium spurium) herbicidal effect grade (Galium spurium): 3 (Herbicidal ratio of 40% or higher and lower than 70%); b (directly sowed rice plant) effect on crop grade (rice): 5 (Herbicidal ratio of 90% or more (almost completely withered)); e (wheat) effect on crop grade (wheat): 3 (Herbicidal ratio of 40% or higher and lower than 70%); I: Avena fatua, herbicidal effect grade (Avena fatua [4]): 5 (Herbicidal ratio of 90% or more (almost completely withered)); O: Chenopodium album, herbicidal effect grade (Chenopodium album): 3 (Herbicidal ratio of 40% or higher and lower than 70%); P: Stellaria media, herbicidal effect grade (Stellaria media): 4 (Herbicidal ratio of 70% or higher and lower than 90%); c: corn, effect on crop grade (corn): 5 (Herbicidal ratio of 90% or more (almost completely withered)) |
| CC(=O)CC1CC(O)=C(c2c(C)cc(C)cc2Br)C1=O (stereo not shown) [7-011] | 3 (Herbicidal ratio of 40% or higher and lower than 70%) | 4 (Herbicidal ratio of 70% or higher and lower than 90%) | 5 (Herbicidal ratio of 90% or more (almost completely withered)) | 5 (Herbicidal ratio of 90% or more (almost completely withered)) | 3 (Herbicidal ratio of 40% or higher and lower than 70%) | 3 (Herbicidal ratio of 40% or higher and lower than 70%) | 2 (Herbicidal ratio of 20% or higher and lower than 40%) | 0 (Herbicidal ratio of 5% or lower (almost no effect)) | 0 (Herbicidal ratio of 5% or lower (almost no effect)) | 3 (Herbicidal ratio of 40% or higher and lower than 70%) | 4 (Herbicidal ratio of 70% or higher and lower than 90%) | 0 (Herbicidal ratio of 5% or lower (almost no effect)) | 0 (Herbicidal ratio of 5% or lower (almost no effect)) | 0 (Herbicidal ratio of 5% or lower (almost no effect)) | 5 (Herbicidal ratio of 90% or more (almost completely withered)) | 0 (Herbicidal ratio of 5% or lower (almost no effect)) | 3 (Herbicidal ratio of 40% or higher and lower than 70%) |  |
